Data: patent publication US20230026869A1, “CRYSTAL FORM OF NUCLEOPROTEIN INHIBITOR AND USE THEREOF” (CHIA TAI TIANQING PHARMACEUTICAL GROUP CO., LTD., priority 2019, published 2023)

Experiments:
Format in all cases: in vitro ADME
[1] = Metabolic stability in liver microsomes of beagle dogs; details: dog
Experimental: Objective: The metabolic stability of the tested compound of formula (I) in liver microsomes of rats, beagle dogs and cynomolgus monkeys was determined. […]

[2] = Metabolic stability in human liver microsomes
Experimental: Objective: The metabolic stability of the test compound in CD-1 mice and human liver microsomes was determined. […]

CYP2C19 = target: T1, CYP2C19 (Homo sapiens, UniProt P33261); assay: Inhibition of human liver microsomal cytochrome P450 isoenzyme CYP2C19; details: human liver microsomes
T1 construct: from tissue; host or cells: human liver microsomes
T1 sequence (P33261 whole entry): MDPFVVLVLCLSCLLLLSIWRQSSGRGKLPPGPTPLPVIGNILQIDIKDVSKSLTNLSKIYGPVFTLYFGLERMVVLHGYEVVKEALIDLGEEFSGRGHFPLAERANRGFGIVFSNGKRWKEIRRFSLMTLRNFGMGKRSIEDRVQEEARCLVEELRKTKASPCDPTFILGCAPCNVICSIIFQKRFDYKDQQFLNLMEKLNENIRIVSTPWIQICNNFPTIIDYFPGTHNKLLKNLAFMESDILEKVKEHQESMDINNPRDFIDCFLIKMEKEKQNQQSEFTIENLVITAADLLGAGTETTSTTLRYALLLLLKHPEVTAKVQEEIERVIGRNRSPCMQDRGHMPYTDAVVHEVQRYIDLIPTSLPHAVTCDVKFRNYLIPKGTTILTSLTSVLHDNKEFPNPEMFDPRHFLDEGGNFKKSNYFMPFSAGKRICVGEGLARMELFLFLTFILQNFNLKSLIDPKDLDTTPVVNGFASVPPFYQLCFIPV
Experimental: (§1) Objective: The inhibitory effect of the test compound on the activity of human liver microsomal cytochrome P450 isoenzymes (CYP1A2, CYP2C9, CYP2C19, CYP2D6 and CYP3A4) was determined. […]

CYP2D6 = target: T2, CYP2D6 (Homo sapiens, UniProt P10635); assay: Inhibition of human liver microsomal cytochrome P450 isoenzyme CYP2D6; details: human liver microsomes
T2 construct: from tissue; host or cells: human liver microsomes
T2 sequence (P10635 whole entry): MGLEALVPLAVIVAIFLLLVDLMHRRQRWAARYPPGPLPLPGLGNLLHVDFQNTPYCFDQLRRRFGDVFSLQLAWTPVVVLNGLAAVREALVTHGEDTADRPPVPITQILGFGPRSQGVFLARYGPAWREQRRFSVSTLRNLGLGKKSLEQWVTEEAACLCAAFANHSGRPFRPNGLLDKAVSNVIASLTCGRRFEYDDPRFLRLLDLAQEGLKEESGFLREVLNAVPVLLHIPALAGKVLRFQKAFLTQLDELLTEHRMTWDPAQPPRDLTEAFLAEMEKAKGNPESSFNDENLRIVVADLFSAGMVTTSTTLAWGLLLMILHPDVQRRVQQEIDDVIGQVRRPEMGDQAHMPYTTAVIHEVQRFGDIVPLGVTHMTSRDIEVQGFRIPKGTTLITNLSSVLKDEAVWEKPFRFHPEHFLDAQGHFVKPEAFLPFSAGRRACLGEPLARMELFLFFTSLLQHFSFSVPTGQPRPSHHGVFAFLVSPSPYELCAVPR
Experimental: as §1

CYP2C9 = target: T3, CYP2C9 (Homo sapiens, UniProt P11712); assay: Inhibition of human liver microsomal cytochrome P450 isoenzyme CYP2C9; details: human liver microsomes
T3 construct: from tissue; host or cells: human liver microsomes
T3 sequence (P11712 whole entry): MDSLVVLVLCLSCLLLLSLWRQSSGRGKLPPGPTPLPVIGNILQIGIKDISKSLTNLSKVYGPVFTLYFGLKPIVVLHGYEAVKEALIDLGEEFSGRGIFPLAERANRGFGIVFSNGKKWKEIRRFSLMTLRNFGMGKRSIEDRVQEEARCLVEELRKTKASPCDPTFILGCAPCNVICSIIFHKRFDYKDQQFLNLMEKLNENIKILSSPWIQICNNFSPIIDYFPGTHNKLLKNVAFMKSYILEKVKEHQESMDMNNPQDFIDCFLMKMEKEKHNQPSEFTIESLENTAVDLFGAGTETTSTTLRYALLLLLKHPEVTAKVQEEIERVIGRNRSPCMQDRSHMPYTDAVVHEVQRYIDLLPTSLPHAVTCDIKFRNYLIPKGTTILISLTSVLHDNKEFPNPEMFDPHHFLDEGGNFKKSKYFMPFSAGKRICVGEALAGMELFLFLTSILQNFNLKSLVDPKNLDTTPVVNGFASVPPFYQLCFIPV
Experimental: as §1

For `CC1(NC(=O)C(=O)c2c(Cl)c(C(=O)Nc3cc(F)c(F)c(F)c3)c3n2CCC3)CCC(CC(=O)O)CC1` (stereo not drawn) [Compound of formula (I)], the microsomal CLint at 1 μM ([1]; beagle, microsomes) was < 9.6 µL/min/mg, the CLint scaled at 1 μM ([1]; Beagle dogs liver microsomes) was < 13.8 mL/min/kg and the half-life at 1 μM ([1]; Beagle dogs liver microsomes, 1 μM compound, 0.5 mg/mL) was > 2.42 h. For the same molecule, the half-life at 1 μM ([2]; Human liver microsomes, 1 μM compound, 0.5 mg/mL) was > 2.42 h, the CLint scaled at 1 μM ([2]; human liver microsomes) was < 8.6 mL/min/kg and the microsomal CLint at 1 μM ([2]; human, microsomes) was < 9.6 µL/min/mg. The IC50 (CYP2C19) was > 50 µM, the IC50 (CYP2D6) was > 50 µM and the IC50 (CYP2C9) was > 50 µM.
